# Laboratory results taken from PMC6355801, “The compound TB47 is highly bactericidal against Mycobacterium ulcerans in a Buruli ulcer mouse model” (Nature Communications, 2019).
# Like-named read-outs stand apart in the source and are kept apart here.
# Tests used:
# [1] = tested on: M. marinum; type: cell-based, Mycobacterium marinum
# [2] = tested on: M. ulcerans; type: cell-based, Mycobacterium ulcerans
# [3] = tested on: M. ulcerans strains 1059 and 1615; assay: MIC on 7H11 agar plates; type: cell-based; settings: Mycobacterium ulcerans, 2 strains (1059 and 1615)
# [4] = tested on: Mycobacterium bovis BCG Tice; type: cell-based; settings: 1 strain
# [5] = tested on: M. smegmatis; assay: microbe, parasite or virus in culture; type: cell-based, Mycobacterium smegmatis
# [6] = tested on: Mycobacterium abscessus; assay: MIC, standard broth dilution assay (CLSI); type: cell-based; settings: 20 clinical isolates
# [7] = tested on: Klebsiella pneumoniae; assay: MIC, standard broth dilution assay (CLSI); type: cell-based; settings: 3 clinical isolates
# [8] = tested on: Acinetobacter baumannii; assay: MIC, standard broth dilution assay (CLSI); type: cell-based; settings: 3 clinical isolates
# [9] = tested on: Staphylococcus aureus; assay: MIC, standard broth dilution assay (CLSI); type: cell-based; settings: 1 clinical isolate
# [10] = tested on: Escherichia coli; assay: MIC, standard broth dilution assay (CLSI); type: cell-based; settings: 5 clinical isolates
# [11] = tested on: Pseudomonas aeruginosa; assay: MIC, standard broth dilution assay (CLSI); type: cell-based; settings: 3 clinical isolates
# [12] = tested on: Enterococcus faecium; assay: MIC, standard broth dilution assay (CLSI); type: cell-based; settings: 1 clinical isolate
# [13] = tested on: Enterococcus faecalis; assay: MIC, standard broth dilution assay (CLSI); type: cell-based; settings: 1 clinical isolate
# [14] = tested on: Salmonella enteriditis; assay: MIC, standard broth dilution assay (CLSI); type: cell-based; settings: 1 clinical isolate
# [15] = tested on: Candida albicans; assay: MIC, standard broth dilution assay (CLSI); type: cell-based; settings: 2 clinical isolates
# [16] = tested on: most of the clinical strains; assay: MIC, standard broth dilution assay (CLSI), summary for clinical strains; type: cell-based
# [17] = tested on: M. ulcerans (AlMu); assay: Time kill assay and CFU-based MBC in liquid culture; type: cell-based, Mycobacterium ulcerans
# Experimental: Serial dilutions of drug-containing solutions and autoluminescent mycobacteria broth culture (OD600 of 0.3 to 1.0) were prepared. RLU counts from the same batch of triplicate samples were measured according to the designed time points. Ninety-six-well plates were measured as rendering the amount of light by using a Veritas™ Microplate Luminometer Operating Manual (Turner BioSystems). MIClux was determined as the lowest concentration that can inhibit > 90% RLUs compared with that from the untreated controls[6],[18]. The time-killing curves and MIClux of autoluminescent strains were determined by detecting RLUs from these samples. For M. ulcerans and M. marinum strains, the incubation time for MIClux reading was 7 days and 3 days, respectively. The minimum bactericidal concentration (MBC) was defined as the lowest concentration of drug that killed ≥ 99% of the CFU compared with the CFU count of the initial inoculum used for the liquid activity assays, which was adopted from reference. […] The concentrations used were twofold series of dilutions for this purpose. The incubation time for RLU reading was 14 days for the MBD experiment and the light from each 1.5 mL tube containing total 500 μL culture was detected using Promega GloMax 20/20n. […] The concentrations used were fivefold series of dilutions for this purpose. Each above experiment was performed in triplicate (three independent experiments) or more by independent persons and from three or more independent cultures. The representative results are shown.
# [18] = tested on: THP-1 cell; assay: Cytotoxicity; type: cell-based
# [19] = target: hERG (Homo sapiens, UniProt Q12809); assay: hERG inhibition; type: biochemical
# Chain of hERG (Q12809 whole entry): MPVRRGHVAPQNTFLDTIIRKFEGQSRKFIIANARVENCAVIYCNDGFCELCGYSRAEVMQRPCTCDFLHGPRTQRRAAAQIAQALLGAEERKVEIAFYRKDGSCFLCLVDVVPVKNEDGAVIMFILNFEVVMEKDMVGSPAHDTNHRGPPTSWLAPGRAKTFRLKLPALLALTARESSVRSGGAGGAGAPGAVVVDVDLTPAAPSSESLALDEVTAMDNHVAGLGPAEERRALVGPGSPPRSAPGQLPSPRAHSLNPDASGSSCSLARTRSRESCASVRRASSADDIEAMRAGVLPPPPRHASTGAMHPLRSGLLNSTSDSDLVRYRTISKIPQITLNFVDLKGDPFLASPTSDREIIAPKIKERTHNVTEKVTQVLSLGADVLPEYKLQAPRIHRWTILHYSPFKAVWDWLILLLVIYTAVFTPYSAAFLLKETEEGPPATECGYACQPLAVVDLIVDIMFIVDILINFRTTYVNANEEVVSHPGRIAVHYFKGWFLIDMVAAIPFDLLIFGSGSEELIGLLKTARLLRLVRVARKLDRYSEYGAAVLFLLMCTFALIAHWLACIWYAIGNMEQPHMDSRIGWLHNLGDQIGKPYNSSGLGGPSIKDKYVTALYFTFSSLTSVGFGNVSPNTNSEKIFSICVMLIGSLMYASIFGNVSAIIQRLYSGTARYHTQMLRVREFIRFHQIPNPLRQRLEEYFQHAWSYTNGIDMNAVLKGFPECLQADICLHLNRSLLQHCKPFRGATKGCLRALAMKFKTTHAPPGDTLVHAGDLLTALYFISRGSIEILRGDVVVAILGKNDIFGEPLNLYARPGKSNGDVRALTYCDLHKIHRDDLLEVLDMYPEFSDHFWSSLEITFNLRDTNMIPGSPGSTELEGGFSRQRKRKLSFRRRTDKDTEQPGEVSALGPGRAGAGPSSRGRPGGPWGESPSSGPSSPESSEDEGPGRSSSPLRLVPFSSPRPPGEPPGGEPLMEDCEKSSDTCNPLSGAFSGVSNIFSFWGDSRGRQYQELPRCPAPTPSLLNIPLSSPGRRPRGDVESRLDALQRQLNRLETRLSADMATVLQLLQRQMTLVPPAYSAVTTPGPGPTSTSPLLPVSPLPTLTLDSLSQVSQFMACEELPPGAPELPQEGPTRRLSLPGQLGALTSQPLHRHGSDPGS
# [20] = Oral tolerability in mice; type: in vivo
# [21] = Long-term administration study in rats; type: in vivo; settings: 10, 30, or 100 mg kg^−1 orally daily for 30 days, male and female rats
# [22] = parameters: species or system BALB/c mice; settings: mouse, in vivo
# Experimental: BALB/c mice were given 2 mg kg^−1 TB47 intravenously or 10 mg kg^−1 orally. […] Footpads and lung tissues were collected at 6, 12, 24, and 48 h post-dose for oral group. After extraction and centrifuge at 4 °C, TB47 concentrations were determined by Liquid Chromatograph-Mass Spectrometer (LC-MS).
# [23] = target: CYP 1A2 (Homo sapiens, UniProt P05177); assay: CYP inhibition; type: in vitro ADME
# Chain of CYP 1A2 (P05177 whole entry): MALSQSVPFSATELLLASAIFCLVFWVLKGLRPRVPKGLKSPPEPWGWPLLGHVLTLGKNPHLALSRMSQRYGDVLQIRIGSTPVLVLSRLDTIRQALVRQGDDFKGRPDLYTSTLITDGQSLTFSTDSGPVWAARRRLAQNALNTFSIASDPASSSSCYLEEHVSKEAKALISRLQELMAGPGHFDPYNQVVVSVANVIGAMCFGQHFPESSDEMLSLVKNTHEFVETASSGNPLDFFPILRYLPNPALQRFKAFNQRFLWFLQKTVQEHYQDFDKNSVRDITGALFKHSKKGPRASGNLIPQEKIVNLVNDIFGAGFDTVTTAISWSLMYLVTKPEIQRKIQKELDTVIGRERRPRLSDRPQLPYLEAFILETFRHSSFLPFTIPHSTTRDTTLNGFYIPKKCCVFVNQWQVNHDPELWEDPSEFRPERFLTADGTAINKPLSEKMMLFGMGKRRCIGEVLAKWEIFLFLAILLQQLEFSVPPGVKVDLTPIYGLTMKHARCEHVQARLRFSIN
# [24] = target: CYP 2C19 (Homo sapiens, UniProt P33261); type: in vitro ADME; settings: read-out: CYP Inhibition (IC50)
# Chain of CYP 2C19 (P33261 whole entry): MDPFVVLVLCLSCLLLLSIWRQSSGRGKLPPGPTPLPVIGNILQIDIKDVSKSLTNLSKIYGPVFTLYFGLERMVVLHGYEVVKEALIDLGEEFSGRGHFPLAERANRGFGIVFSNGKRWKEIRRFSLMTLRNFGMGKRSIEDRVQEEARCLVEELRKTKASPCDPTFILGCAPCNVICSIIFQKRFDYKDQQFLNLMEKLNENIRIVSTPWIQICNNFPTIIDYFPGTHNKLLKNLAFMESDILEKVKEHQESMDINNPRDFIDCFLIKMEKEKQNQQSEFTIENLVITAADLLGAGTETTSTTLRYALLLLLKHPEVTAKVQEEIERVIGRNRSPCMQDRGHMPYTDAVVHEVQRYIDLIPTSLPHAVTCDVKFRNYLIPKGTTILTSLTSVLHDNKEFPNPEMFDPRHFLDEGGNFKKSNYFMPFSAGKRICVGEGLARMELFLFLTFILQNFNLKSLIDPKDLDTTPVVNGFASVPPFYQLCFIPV
# [25] = target: CYP 2C9 (Homo sapiens, UniProt P11712); assay: CYP inhibition; type: in vitro ADME
# Chain of CYP 2C9 (P11712 whole entry): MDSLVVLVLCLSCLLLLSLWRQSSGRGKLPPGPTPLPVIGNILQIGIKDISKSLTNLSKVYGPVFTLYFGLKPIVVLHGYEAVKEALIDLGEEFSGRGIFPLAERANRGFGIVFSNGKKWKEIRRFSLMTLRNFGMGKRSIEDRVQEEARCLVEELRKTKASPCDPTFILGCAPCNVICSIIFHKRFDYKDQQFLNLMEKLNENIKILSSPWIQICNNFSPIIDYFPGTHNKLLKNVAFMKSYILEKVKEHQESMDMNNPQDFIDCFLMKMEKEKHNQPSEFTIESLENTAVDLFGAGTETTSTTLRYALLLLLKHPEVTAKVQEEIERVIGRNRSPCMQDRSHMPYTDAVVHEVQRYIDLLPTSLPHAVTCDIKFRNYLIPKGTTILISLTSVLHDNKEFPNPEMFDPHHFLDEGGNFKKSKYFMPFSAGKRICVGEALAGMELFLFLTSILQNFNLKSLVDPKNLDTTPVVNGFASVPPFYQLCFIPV
# [26] = target: CYP 2D6 (Homo sapiens, UniProt P10635); type: in vitro ADME; settings: read-out: CYP Inhibition (IC50)
# Chain of CYP 2D6 (P10635 whole entry): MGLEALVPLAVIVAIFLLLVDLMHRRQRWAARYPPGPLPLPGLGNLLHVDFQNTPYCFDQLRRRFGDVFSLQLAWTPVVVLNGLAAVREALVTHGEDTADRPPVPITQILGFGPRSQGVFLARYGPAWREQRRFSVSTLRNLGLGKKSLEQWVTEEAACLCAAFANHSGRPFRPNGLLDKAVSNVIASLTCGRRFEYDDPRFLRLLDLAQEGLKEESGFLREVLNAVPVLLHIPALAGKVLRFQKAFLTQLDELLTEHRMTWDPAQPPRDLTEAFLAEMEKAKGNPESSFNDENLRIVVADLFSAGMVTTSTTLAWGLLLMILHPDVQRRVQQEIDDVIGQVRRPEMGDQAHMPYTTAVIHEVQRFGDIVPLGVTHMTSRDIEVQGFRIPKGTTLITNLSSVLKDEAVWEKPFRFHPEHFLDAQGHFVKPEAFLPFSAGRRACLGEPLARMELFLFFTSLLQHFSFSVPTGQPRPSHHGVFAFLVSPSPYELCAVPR
# [27] = type: in vitro ADME, Human
# From the text: (§1) Supplement 41467_2019_8464_MOESM1_ESM.docx, table 4: Table 2-3 Metabolic stability | column: T1/2 (min); Clint In Vitro (mL min^-1 gprot^-1); Clint In Vivo Extpl (mL min^-1); Clint Hep In Vivo Extpl (mL min^-1); Stability
# [28] = type: in vitro ADME, Rat
# From the text: as §1
# [29] = type: in vitro ADME, Mouse
# From the text: as §1
# [30] = type: in vitro ADME, Monkey
# From the text: as §1
# [31] = type: in vitro ADME, Dog
# From the text: as §1
# [32] = tested on: VERO cell
# [33] = target: CYP 3A4 (Homo sapiens, UniProt P08684); settings: read-out: CYP Inhibition (IC50)
# Chain of CYP 3A4 (P08684 whole entry): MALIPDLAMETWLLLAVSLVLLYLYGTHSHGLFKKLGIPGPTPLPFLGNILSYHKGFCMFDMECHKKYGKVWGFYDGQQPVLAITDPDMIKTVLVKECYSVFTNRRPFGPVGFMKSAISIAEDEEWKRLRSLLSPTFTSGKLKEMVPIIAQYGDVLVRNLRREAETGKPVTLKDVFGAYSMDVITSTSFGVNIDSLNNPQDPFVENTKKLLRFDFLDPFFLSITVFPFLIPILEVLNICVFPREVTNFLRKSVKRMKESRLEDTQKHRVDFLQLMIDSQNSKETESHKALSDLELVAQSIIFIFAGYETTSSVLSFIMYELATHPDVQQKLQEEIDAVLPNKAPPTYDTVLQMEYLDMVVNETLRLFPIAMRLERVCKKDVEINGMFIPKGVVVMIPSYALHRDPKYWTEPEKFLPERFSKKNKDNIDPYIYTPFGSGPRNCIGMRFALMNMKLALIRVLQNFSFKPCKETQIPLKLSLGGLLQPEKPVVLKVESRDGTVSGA
# [34] = not told
structure (smiles),measurement,setting,value
"CO[C@H]1/C=C/O[C@@]2(C)Oc3c(C)c(O)c4c(O)c(c(/C=N/N5CCN(C)CC5)c(O)c4c3C2=O)NC(=O)/C(C)=C\C=C\[C@H](C)[C@H](O)[C@@H](C)[C@@H](O)[C@@H](C)[C@H](OC(C)=O)[C@@H]1C [RIF, rifampin]",MIClux,[1]; M. marinum Wild-type (Autoluminescent strain),0.25 to 1.0 µg/mL
same,MIClux,"[1]; M. marinum Wild-type:: qcrB^WT, over-expression of wild-type qcrB",0.25 to 1.0 µg/mL
same,MIClux,[1]; M. marinum Wild-type:: vector (empty plasmid),0.25 to 1.0 µg/mL
same,MIClux,[2]; M. ulcerans Wild-type (AlMu 1059),0.06 to 0.25 µg/mL
same,MIClux,"[2]; M. ulcerans Wild-type:: qcrB^WT, over-expression of wild-type qcrB",0.06 to 0.25 µg/mL
same,MIClux,[2]; M. ulcerans Wild-type:: vector (empty plasmid),0.06 to 0.25 µg/mL
COc1ccn2nc(C)c(C(=O)NCc3ccc(N4CCC(c5ccc(OC(F)(F)F)cc5)CC4)cc3)c2c1 [TB47],MIC,"[1]; Mycobacterium marinum, 1 strain",0.001 to 0.008 µg/mL
same,MIC,[3],0.0016 µg/mL
same,MIC,[4],0.003 µg/mL
same,MIC,"[5]; Mycobacterium smegmatis, 1 strain",50 µg/mL
same,MIC,[6],>128 µg/mL
same,MIC,[7],>128 µg/mL
same,MIC,[8],>128 µg/mL
same,MIC,[9],>128 µg/mL
same,MIC,[10],>128 µg/mL
same,MIC,[11],>128 µg/mL
same,MIC,[12],>128 µg/mL
same,MIC,[13],>128 µg/mL
same,MIC,[14],>128 µg/mL
same,MIC,[15],>128 µg/mL
same,MICs,[16],> 128 µg/mL
same,bactericidal activity compared with 0.2 µg mL^−1 rifampin,"[17]; TB47 at 0.008 µg mL^−1 or higher, time kill assay",more potent
same,minimum bactericidal concentration (MBC),[17]; killed ≥ 99% of CFU of the initial inoculum,0.0064 µg/mL
same,concentration demonstrating bactericidal activity,"[17]; standard time kill assay, AlMu in liquid culture",≥ 0.0016 µg/mL
same,IC50,[18],50 µM
same,IC50,[19],> 30 µM
same,tolerability,"[20]; oral 200 mg kg^−1 daily for 4 weeks, mice",well tolerated
same,tolerability,"[20]; single oral administration of 2000 mg kg^−1, mice",well tolerated
same,tolerability,[21],well tolerated without any meaningful clinical signs of toxicity
same,bioavailability,[22],38.1%
same,MRT(0-t),"[22]; iv, 2 mg/kg",14.7 h
same,MRT(0-∞),"[22]; iv, 2 mg/kg",22.3 h
same,t 1/2z,"[22]; iv, 2 mg/kg",17.7 h
same,MRT(0-t),"[22]; po, 10 mg/kg",20.2 h
same,MRT(0-∞),"[22]; po, 10 mg/kg",52.0 h
same,t 1/2z,"[22]; po, 10 mg/kg",35.6 h
same,IC50,[23],> 10 µM
same,IC50,[24],> 10 µM
same,IC50,[25],> 10 µM
same,IC50,[26],> 10 µM
same,Stability,[27],High
same,Clint Hep In Vivo Extpl,[27]; human,0.0 mL/min
same,Clint In Vitro,[27]; human,0.0 mL min^-1 gprot^-1
same,Clint In Vivo Extpl,[27]; human,0.0 mL/min
same,T1/2,[27]; human,Stable
same,Stability,[28],High
same,Clint Hep In Vivo Extpl,[28]; rat,5.4 mL/min
same,Clint In Vitro,[28]; rat,16.5 mL min^-1 gprot^-1
same,Clint In Vivo Extpl,[28]; rat,7.4 mL/min
same,T1/2,[28]; rat,2.13 h
same,Stability,[29],High
same,Clint Hep In Vivo Extpl,[29]; mouse,0.8 mL/min
same,Clint In Vitro,[29]; mouse,16.5 mL min^-1 gprot^-1
same,Clint In Vivo Extpl,[29]; mouse,1.1 mL/min
same,T1/2,[29]; mouse,2.12 h
same,Stability,[30],High
same,Clint Hep In Vivo Extpl,[30]; monkey,0.1 mL/min
same,Clint In Vitro,[30]; monkey,0.0 mL min^-1 gprot^-1
same,Clint In Vivo Extpl,[30]; monkey,0.1 mL/min
same,T1/2,[30]; monkey,1555 h
same,Stability,[31],High
same,Clint Hep In Vivo Extpl,[31]; dog,17.1 mL/min
same,Clint In Vitro,[31]; dog,3.5 mL min^-1 gprot^-1
same,Clint In Vivo Extpl,[31]; dog,19.0 mL/min
same,T1/2,[31]; dog,9.97 h
same,IC50,[32],> 100 µM
same,IC50,[33]; 3A4-Midazolam,> 10 µM
same,IC50,[33]; 3A4-Testerone,> 10 µM
same,Conclusion: P-gp substrate,[34],Not P-gp substrate
same,Conclusion: permeability,[34],High permeability
same,Efflux Ratio,[34],1.07
NNC(=O)c1ccncc1 [isoniazid],MIC,[5]; MsmΔcydAB,4 µg/mL
same,MIC,[5]; MsmΔcydAB::cydAB^Mtb,4 µg/mL
same,MIC,[5]; MsmΔcydAB::cydAB^Mu,4 µg/mL
same,MIC,[5]; Mycolicibacterium smegmatis,4 µg/mL
